pIC50: −log10 of the molar value.
Assays:
[1] = test system: HeLa cells (ATCC CCL-2); experiment: Cellular growth inhibition assay, HeLa cells (Example 16); format: cell-based; conditions: Homo sapiens, 72 hours, CellTiter-Glo 2.0
Procedure: (§1) Exemplary compounds were tested for ability to inhibit the proliferation of HEK293 cells (ATCC CRL-1573) and HeLa cells (ATCC CCL-2).
(§2) HEK293 and HeLa cells were cultured in DMEM (Gibco 11995), supplemented with 10% Heat-inactivated FBS (Gibco A38400-01) and 1% Penicillin/Streptomycin (Gibco 15140-122) at 37° C. with 5% CO2 in a humidified tissue culture incubator. Cells were seeded at 500 cells/well in 384-well, Poly-D-lysine-treated blackplates (Perkin Elmer 6007710) in 25 μL media lacking selection for 18-24 hours. Plates were spun at 300 g for 30 seconds and stored in the incubator overnight. After 24 hours, a 25 μL aliquot of compound-containing medium was added in each well, at a final top concentration of 10 μM test compound, with 3-fold dilutions, using DMSO alone as a negative control. Plates were then spun at 300×g for 3 minutes again and cultured at 37° C. with 5% CO2. After 72 hours, cell viability was quantified with CellTiter-Glo 2.0 (Promega). After equilibrating cell plates at room temperature for 30 minutes, 25 μL CellTiter-Glo 2.0 reagent was dispensed into each well. Plates were mixed on a shaker for 2 minutes at 500 rpm, followed by a 10-minute incubation at room temperature. Luminescence readings were measured with an EnVision Plate Reader (Perkin Elmer). Data was normalized to DMSO treated cell wells. A four-parameter non-linear regression curve fit was applied to dose-response data in Prism to determine the half maximal growth inhibitory concentration (GI50) of each compound.

[2] = test system: HEK293 cells (ATCC CRL-1573); experiment: Cellular growth inhibition assay, HEK293 cells (Example 16); format: cell-based; conditions: Homo sapiens, 72 hours, CellTiter-Glo 2.0
Procedure: as §1, §2

[3] = target: T1, GSPT1 (Homo sapiens, UniProt P15170+Q96SW2); experiment: GSPT1 HiBiT degradation assay; format: cell-based; conditions: HEK293 LgBiT GSPT1 HiBiT cells, 6 hours
T1 construct: host or cells: HEK293 LgBiT / GSPT1 HiBiT CRISPR knock-in
T1 sequence (P15170 whole entry): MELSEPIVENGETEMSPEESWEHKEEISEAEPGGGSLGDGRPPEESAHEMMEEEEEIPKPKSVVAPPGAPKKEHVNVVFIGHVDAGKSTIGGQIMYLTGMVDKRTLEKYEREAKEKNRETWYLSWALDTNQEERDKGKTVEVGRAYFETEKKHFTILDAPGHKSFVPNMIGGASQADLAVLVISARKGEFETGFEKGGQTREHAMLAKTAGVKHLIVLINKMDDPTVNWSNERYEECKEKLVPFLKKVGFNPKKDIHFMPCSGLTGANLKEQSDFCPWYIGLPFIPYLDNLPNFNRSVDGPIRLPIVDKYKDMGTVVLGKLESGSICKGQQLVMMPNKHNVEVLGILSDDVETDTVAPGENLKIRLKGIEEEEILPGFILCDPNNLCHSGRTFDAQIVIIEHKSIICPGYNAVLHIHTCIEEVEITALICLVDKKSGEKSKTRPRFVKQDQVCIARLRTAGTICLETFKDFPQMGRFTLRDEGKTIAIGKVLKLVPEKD
T1 sequence (Q96SW2 whole entry): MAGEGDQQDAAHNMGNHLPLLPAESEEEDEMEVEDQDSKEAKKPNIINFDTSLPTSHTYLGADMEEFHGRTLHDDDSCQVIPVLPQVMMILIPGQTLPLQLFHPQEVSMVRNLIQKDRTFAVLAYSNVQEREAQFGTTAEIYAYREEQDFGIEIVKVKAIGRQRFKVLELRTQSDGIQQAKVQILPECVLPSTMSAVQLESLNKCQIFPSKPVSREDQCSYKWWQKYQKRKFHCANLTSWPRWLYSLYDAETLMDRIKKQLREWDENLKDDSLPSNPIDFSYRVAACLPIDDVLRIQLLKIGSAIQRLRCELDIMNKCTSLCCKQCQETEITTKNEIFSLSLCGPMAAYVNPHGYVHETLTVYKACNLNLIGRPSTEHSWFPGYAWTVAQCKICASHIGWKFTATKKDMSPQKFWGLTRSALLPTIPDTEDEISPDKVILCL
T1 sequence (Q16531 whole entry partner): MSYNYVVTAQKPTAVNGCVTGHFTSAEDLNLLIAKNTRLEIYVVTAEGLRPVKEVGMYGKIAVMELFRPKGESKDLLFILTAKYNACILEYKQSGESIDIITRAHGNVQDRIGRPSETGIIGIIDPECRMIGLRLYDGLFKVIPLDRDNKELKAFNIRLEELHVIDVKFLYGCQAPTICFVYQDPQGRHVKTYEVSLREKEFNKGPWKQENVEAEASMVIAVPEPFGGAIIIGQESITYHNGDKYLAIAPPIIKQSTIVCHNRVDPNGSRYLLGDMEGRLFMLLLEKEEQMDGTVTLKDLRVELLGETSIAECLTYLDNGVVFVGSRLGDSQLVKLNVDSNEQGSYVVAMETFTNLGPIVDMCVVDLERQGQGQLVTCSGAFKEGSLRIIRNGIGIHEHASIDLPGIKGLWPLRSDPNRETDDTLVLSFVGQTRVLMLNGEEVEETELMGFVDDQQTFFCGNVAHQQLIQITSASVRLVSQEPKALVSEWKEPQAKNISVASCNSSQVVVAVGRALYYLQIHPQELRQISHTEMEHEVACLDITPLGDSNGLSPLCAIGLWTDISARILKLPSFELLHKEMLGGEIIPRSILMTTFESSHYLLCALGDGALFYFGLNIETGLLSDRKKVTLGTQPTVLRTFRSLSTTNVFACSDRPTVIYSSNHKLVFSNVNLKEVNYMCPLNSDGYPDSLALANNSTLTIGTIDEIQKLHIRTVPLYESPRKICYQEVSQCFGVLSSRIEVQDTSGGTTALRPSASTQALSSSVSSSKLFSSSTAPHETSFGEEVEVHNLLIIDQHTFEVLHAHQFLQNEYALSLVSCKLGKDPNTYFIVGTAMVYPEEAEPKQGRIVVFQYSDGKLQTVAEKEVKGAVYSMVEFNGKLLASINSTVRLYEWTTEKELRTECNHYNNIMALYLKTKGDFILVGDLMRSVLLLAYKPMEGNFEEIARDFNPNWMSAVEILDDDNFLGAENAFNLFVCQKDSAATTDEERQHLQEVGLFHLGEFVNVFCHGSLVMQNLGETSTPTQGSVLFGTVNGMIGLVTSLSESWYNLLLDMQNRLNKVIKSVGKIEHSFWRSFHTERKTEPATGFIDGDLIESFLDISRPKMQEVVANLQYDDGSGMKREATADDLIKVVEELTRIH
Text: Promega developed a HEK293 cell line that constitutively expresses LgBiT protein and GSPT1_HiBiT fusion protein. When both proteins are present, the HiBiT portion of the fusion protein combines with LgBiT protein to form a functional luciferase enzyme. Endurazine, a cell permeable small molecule, is converted by cellular esterases into furimazine, which the luciferase enzyme uses as a substrate to generate luminescence. When GSPT1 is degraded, the HiBit is also degraded. This prevents formation of fully functional luciferase, leading to a loss in luminescence. GSPT1 degradation therefore correlates with a decrease in luminescence and can be measured continuously over time. The concentration of compound at which 50% GSPT1 degradation occurs (DC50) may be calculated using this system.
HEK293 LgBiTGSPT1 HiBiT CRISPR Knock-in cells were cultured in DMEM Media supplemented with 10% Heat-inactivated FBS, 1% Penicillin/Streptomycin, 200 μg/mL hygromycin and stored in a humidified incubator set at 37° C. and 5% CO2. 18-24 hours prior to compound treatment, cells were seeded at 1000 cells/well in a 384-well tissue culture-treated white plates in 25 μL media lacking selection for 18-24 hours. The plates were spun at 300 g for 30 seconds and stored in the incubator overnight. After 24 hours, compounds are titrated in DMSO and added to media supplemented with endurazine substrate. A 25 μL aliquot of 2× compound/endurazine in media is then added to the 384-well microplate with seeded cells. (Endurazine is used at a final concentration of 0.5×). The plate was spun at 300 g for 30 seconds and stored in the incubator. After 6 hours, the plate was read on a Perkin Elmer MultiMode Plate Reader Envision 2105 to measure luminescence signal. Data were plotted in Prism (Graphpad) and the concentration of compound at which 50% GSPT1 degradation occurs (DC50) was calculated.

[4] = target: KRAS G12C (Homo sapiens, UniProt P01116, G12C); experiment: KRAS G12C nucleotide exchange assay (SOS1-mediated, HTRF); format: biochemical; design: GST-tagged KRAS G12C (amino acids 2-169); conditions: 1 hr pre-incubation
Chain of KRAS G12C (P01116 2-169 isoform P01116-2 G12C): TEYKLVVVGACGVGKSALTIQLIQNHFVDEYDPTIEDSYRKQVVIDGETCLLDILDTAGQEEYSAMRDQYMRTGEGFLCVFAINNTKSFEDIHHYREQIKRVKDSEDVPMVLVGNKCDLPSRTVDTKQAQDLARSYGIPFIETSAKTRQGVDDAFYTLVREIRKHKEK
Procedure: KRAS target engagement (IC50 determination) was performed using a KRAS G12C nucleotide exchange assay. Specifically, compounds were tested against KRAS G12C in 10-point concentration IC50 mode with 3-fold serial dilution at a starting concentration of 10 μM. ARS1620 was used as a control.
Briefly, GST-tagged KRAS G12C (amino acids 2-169) was mixed with anti-GST Tb antibody (1.5× solution) and 10 μL was delivered to reaction wells. Compounds were delivered using an acoustic dispenser (Echo, Labcyte) and pre-incubated with protein for 1 hr at RT. KRAS/anti-GST Tb Ab/compound mixture was incubated for 1 hour at room temperature. A 3× solution of SOS1 (amino acids 564-1049) and GTP-DY-647P1 (GTP*) was prepared in reaction buffer. A 5 μL aliquot of SOS1/GTP* solution was added to reaction wells to initiate the exchange reaction. No-SOS1 reaction or max compound concentration was used as blank. The final concentrations of KRAS G12C, SOS1, and GTP* were 30 nM, 20 nM, and 0.15 μM, respectively. SOS1 mediated exchange of GDP to GTP-DY-647P was measured using HTRF (Ex/Em=(320-75/665-7.5; 615-8.5)) using an Envision Plate Reader (Perkin Elmer). IC50 determination was performed using a Sigmoidal dose response (variable slope) equation.

Row | Compound | GI50 [1] [µM] | GI50 [2] [µM] | DC50 [3] [µM] | pIC50 [4]
1 | C=C(CN1C(=O)CCC(N2Cc3cc(CNC(=O)NCc4cccc(C(F)(F)F)c4O)ccc3C2=O)C1=O)C(=O)N1CCN(c2nc(OC[C@@H]3CCCN3C)nc3c2CCN(c2cccc4cccc(Cl)c24)C3)C[C@@H]1CC#N (stereo in doubt) [Compound I-94] | > 10 | 1.5 to 10 | – | –
2 | C=C(CN1C(=O)CCC(N2Cc3cc(CNC(=O)Nc4ccc(C)c(Cl)c4)ccc3C2=O)C1=O)C(=O)N1CCN(c2nc(=O)n(-c3c(C)ccnc3C(C)C)c3nc(-c4c(O)cccc4F)c(F)cc23)[C@@H](C)C1 (stereo partly drawn) [Compound I-1, 1-(3-chloro-4-methyl-phenyl)-3-[[2-[1-[2-[(3S)-4-[6-fluoro-7-(2-fluoro-6-hydroxy-phenyl)-1-(2-isopropyl-4-methyl-3-pyridyl)-2-oxo-pyrido[2,3-d]pyrimidin-4-yl]-3-methyl-piperazine-1-carbonyl]allyl]-2,6-dioxo-3-piperidyl]-1-oxo-isoindolin-5-yl]methyl]urea] | – | – | 0.5 to 2.5 | –
3 | C=C(CN1C(=O)CCC(N2Cc3cc(CNC(=O)Nc4ccc(C)c(Cl)c4)ccc3C2=O)C1=O)C(=O)N1CCN(c2nc(OC[C@@H]3CCCN3C)nc3c2CCN(c2cccc4cccc(Cl)c24)C3)C[C@@H]1CC#N (stereo partly drawn) [Compound I-2, 1-(3-chloro-4-methyl-phenyl)-3-[[2-[1-[2-[(2S)-4-[7-(8-chloro-1-naphthyl)-2-[[(2S)-1-methylpyrrolidin-2-yl]methoxy]-6,8-dihydro-5H-pyrido[3,4-d]pyrimidin-4-yl]-2-(cyanomethyl)piperazine-1-carbonyl]allyl]-2,6-dioxo-3-piperidyl]-1-oxo-isoindolin-5-yl]methyl]urea] | – | – | 0.05 to 0.5 | < 5.00
4 | C=C(CN(Cc1ccc2c(c1)CN(C1CCC(=O)NC1=O)C2=O)C(=O)Nc1ccc(C)c(Cl)c1)C(=O)N1CCN(c2nc(OC[C@@H]3CCCN3C)nc3c2CCN(c2cccc4cccc(Cl)c24)C3)C[C@@H]1CC#N (stereo partly shown) [Compound I-33] | 1.5 to 10 | 1.5 to 10 | > 2.5 | –
5 | C=C(CN(C(=O)NCc1ccc2c(c1)CN(C1CCC(=O)NC1=O)C2=O)c1ccc(C)c(Cl)c1)C(=O)N1CCN(c2nc(OC[C@@H]3CCCN3C)nc3c2CCN(c2cccc4cccc(Cl)c24)C3)C[C@@H]1CC#N (stereo partly shown) [Compound I-34] | 1.5 to 10 | < 0.5 | 0.05 to 0.5 | –
6 | C=C(COc1ccc(CN2C(=O)CCC(N3Cc4cc(CNC(=O)Nc5ccc(C)c(Cl)c5)ccc4C3=O)C2=O)cc1)C(=O)N1CCC[C@@H](n2nc(-c3ccc(Oc4ccccc4)cc3)c3c(N)ncnc32)C1 (stereo partly shown) [Compound I-36] | > 10 | > 10 | > 2.5 | –
7 | C=C(CN(C(=O)NCc1ccc2c(c1)CN(C1CCC(=O)NC1=O)C2=O)c1cc(Cl)cc([N+](=O)[O-])c1)C(=O)N1CCC[C@@H](n2nc(-c3ccc(Oc4ccccc4)cc3)c3c(N)ncnc32)C1 (stereo partly shown) [Compound I-37] | – | – | > 2.5 | –
8 | C=C(CN(C(=O)NCc1ccc2c(c1)CN(C1CCC(=O)NC1=O)C2=O)c1ccc(OC)c(Cl)c1)C(=O)N1CCC[C@@H](n2nc(-c3ccc(Oc4ccccc4)cc3)c3c(N)ncnc32)C1 (stereo partly shown) [Compound I-39] | > 10 | > 10 | > 2.5 | –
9 | C=C(CN(C(=O)NCc1ccc2c(c1)CN(C1CCC(=O)NC1=O)C2=O)c1cc(Cl)cc(OC)c1)C(=O)N1CCC[C@@H](n2nc(-c3ccc(Oc4ccccc4)cc3)c3c(N)ncnc32)C1 (stereo partly shown) [Compound I-40] | > 10 | > 10 | > 2.5 | –
10 | C=C(COc1c(F)cc(CN2C(=O)CCC(N3Cc4cc(CNC(=O)Nc5ccc(C)c(Cl)c5)ccc4C3=O)C2=O)cc1F)C(=O)N1CCC[C@@H](n2nc(-c3ccc(Oc4ccccc4)cc3)c3c(N)ncnc32)C1 (stereo partly shown) [Compound I-51] | > 10 | > 10 | > 2.5 | –
11 | C=C(COC(=O)NCc1cc(Cl)cc(NC(=O)NCc2ccc3c(c2)CN(C2CCC(=O)NC2=O)C3=O)c1)C(=O)N1CCC[C@@H](n2nc(-c3ccc(Oc4ccccc4)cc3)c3c(N)ncnc32)C1 (stereo partly drawn) [Compound I-53, 2-((R)-3-(4-amino-3-(4-phenoxyphenyl)-1H-pyrazolo[3,4-d]pyrimidin-1-yl)piperidine-1-carbonyl)allyl (3-chloro-5-(3-((2-(2,6-dioxopiperidin-3-yl)-1-oxoisoindolin-5-yl)methyl)ureido)benzyl)carbamate] | 0.5 to 1.5 | 0.5 to 1.5 | 0.05 to 0.5 | –
12 | C=C(COc1cccc(NC(=O)NCc2ccc3c(c2)CN(C2CCC(=O)NC2=O)C3=O)c1Cl)C(=O)N1CCN(c2nc(OC[C@@H]3CCCN3C)nc3c2CCN(c2cccc4cccc(Cl)c24)C3)C[C@@H]1CC#N (stereo partly shown) [Compound I-91] | > 10 | > 10 | – | –
13 | C=C(COc1ccc2c(Cl)c(NC(=O)NCc3ccc4c(c3)CN(C3CCC(=O)NC3=O)C4=O)ccc2c1)C(=O)N1CCN(c2nc(OC[C@@H]3CCCN3C)nc3c2CCN(c2cccc4cccc(Cl)c24)C3)C[C@@H]1CC#N (stereo partly shown) [Compound I-92] | > 10 | < 0.5 | – | –
14 | C=C(Cn1ccc2ccc(NC(=O)NCc3ccc4c(c3)CN(C3CCC(=O)NC3=O)C4=O)cc21)C(=O)N1CCN(c2nc(OC[C@@H]3CCCN3C)nc3c2CCN(c2cccc4cccc(Cl)c24)C3)C[C@@H]1CC#N (stereo partly shown) [Compound I-93] | 0.5 to 1.5 | 0.5 to 1.5 | – | –
15 | C=C(COc1cc(NC(=O)NCc2ccc3c(c2)CN(C2CCC(=O)NC2=O)C3=O)cc(OC)c1Cl)C(=O)N1CCN(c2nc(OC[C@@H]3CCCN3C)nc3c2CCN(c2cccc4cccc(Cl)c24)C3)C[C@@H]1CC#N (stereo partly shown) [Compound I-96] | > 10 | > 10 | – | –
16 | C=C(COc1c(Cl)cccc1NC(=O)NCc1ccc2c(c1)CN(C1CCC(=O)NC1=O)C2=O)C(=O)N1CCC[C@@H](n2nc(-c3ccc(Oc4ccccc4)cc3)c3c(N)ncnc32)C1 (stereo partly shown) [Compound I-115] | 0.5 to 1.5 | 1.5 to 10 | < 0.05 | –
17 | C=C(COC(=O)NC1CCC(Nc2nc(NCc3ccc(-c4ccccn4)cc3)c3ncn(C(C)C)c3n2)CC1)C(=O)N1CCN(c2nc(OC[C@@H]3CCCN3C)nc3c2CCN(c2cccc4cccc(Cl)c24)C3)C[C@@H]1CC#N (stereo partly shown) [II-192] | < 0.5 | 0.5 to 1.5 | – | –
